Drawing on patent publication US11739078B2, “Methods of inhibiting kinases” (INSILICO MEDICINE IP LIMITED, priority 2019, dated 2023), this text covers IC50 for 25 molecules.

pIC50: −log10 of the molar value. Where two headings read alike, the source gives them in different places.

One assay deals with TNIK (Homo sapiens (Human), UniProt Q9UKE5). The assay is described as follows: TNIK enzymatic assay (radiometric kinase inhibition). Format: biochemical. The protocol: The compounds were studied for function as TNIK inhibitors to generate the data of Table 1. […] (specific activity and concentration as required). The reaction is initiated by the addition of the Mg/ATP mix. After incubation for 40 minutes at room temperature, the reaction is stopped by the addition of phosphoric acid to a concentration of 0.5%.
Chain of TNIK (Q9UKE5 whole entry): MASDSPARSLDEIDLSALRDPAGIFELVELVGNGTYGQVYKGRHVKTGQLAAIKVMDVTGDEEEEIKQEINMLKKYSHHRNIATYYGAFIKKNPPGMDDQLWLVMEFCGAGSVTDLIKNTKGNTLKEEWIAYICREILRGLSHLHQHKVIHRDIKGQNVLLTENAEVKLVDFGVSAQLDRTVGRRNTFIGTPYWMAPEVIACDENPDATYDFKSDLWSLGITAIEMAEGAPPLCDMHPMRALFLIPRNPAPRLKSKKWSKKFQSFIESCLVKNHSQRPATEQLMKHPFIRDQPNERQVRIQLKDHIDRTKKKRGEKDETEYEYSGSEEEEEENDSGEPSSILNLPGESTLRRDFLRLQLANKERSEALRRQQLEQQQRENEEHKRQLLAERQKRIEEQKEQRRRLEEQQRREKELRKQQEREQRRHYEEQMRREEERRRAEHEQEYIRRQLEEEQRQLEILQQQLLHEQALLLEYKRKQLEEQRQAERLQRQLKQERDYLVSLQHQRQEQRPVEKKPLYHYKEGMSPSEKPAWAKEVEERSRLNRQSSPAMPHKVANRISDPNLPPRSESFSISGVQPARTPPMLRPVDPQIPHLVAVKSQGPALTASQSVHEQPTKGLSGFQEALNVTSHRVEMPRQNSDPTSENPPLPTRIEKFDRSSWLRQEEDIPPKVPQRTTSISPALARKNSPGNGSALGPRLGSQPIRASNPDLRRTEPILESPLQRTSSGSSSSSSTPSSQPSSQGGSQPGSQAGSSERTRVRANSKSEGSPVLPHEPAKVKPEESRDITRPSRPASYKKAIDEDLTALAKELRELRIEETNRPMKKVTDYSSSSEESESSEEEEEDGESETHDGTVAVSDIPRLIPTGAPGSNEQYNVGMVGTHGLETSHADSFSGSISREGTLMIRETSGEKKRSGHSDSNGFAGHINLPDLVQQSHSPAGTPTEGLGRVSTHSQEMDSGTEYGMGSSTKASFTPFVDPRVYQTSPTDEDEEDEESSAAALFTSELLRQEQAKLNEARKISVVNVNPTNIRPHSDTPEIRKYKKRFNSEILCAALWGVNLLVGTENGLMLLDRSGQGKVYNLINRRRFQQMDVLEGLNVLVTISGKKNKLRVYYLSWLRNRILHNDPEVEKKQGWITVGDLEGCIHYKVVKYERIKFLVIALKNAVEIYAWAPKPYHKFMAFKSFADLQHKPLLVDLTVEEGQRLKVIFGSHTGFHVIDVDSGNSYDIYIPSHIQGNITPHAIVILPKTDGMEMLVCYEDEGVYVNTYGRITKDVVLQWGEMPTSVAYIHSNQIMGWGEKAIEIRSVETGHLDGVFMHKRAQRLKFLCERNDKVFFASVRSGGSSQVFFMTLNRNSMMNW

For a further assay, the target named is MAP4K4 (h) (Homo sapiens (Human), UniProt O95819). Briefly: MAP4K4 in vitro kinase assay (radiometric). Type of assay: biochemical. The note with it: read-out: MAP4K4_IC50. Here is the method: (specific activity and concentration as required). The reaction is initiated by the addition of the Mg/ATP mix. After incubation for 40 minutes at room temperature, the reaction is stopped by the addition of phosphoric acid to a concentration of 0.5%.
Chain of MAP4K4 (h) (O95819 whole entry): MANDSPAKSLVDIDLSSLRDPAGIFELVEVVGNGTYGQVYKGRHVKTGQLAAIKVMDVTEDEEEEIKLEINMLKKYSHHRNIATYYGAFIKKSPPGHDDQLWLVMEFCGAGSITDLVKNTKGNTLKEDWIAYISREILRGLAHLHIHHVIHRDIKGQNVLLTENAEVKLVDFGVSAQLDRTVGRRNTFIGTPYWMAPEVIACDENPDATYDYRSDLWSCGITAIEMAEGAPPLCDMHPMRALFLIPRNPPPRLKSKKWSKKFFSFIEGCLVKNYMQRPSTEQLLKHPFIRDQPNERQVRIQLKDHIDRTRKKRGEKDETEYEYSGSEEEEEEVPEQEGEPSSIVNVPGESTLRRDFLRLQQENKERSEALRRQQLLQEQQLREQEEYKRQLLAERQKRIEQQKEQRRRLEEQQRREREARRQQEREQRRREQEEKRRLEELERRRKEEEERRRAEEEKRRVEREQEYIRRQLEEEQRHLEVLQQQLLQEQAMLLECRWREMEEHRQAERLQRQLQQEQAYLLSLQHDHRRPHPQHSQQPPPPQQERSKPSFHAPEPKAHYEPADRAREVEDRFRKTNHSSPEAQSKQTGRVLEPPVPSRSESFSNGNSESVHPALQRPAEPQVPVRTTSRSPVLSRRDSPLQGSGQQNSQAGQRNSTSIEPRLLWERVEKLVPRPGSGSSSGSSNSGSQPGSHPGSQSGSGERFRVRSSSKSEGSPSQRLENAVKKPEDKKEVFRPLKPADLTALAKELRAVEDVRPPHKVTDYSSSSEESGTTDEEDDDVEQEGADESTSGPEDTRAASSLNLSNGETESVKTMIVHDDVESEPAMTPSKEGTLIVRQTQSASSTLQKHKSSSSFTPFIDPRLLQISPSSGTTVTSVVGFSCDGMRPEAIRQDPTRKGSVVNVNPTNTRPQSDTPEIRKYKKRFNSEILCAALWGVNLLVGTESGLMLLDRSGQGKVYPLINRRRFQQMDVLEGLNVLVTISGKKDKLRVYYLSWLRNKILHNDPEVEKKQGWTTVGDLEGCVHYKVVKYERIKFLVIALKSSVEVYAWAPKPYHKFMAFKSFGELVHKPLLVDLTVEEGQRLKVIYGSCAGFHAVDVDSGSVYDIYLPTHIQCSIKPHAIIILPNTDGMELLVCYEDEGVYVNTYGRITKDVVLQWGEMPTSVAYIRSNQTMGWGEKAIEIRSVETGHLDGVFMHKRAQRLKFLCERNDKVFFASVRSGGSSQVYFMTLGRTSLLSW

Setting [1] is: TNIK enzymatic assay, Table 1, read-out: IC50.

In the case of `O=C(Nc1ccccc1F)c1ccc(-c2c(-c3ccc(F)cc3)ncn2C2CCCCC2)o1` [Compound 62, 5-(1-cyclohexyl-4-(4-fluorophenyl)-1H-imidazol-5-yl)-N-(2-fluorophenyl)furan-2-carboxamide], the pIC50 was 7.60 at TNIK (setting [1]), 7.60 on TNIK (read-out: TNIK_IC50) and 7.33 on MAP4K4 (h).
With `O=C(Nc1ccccc1C(F)(F)F)c1ccc(-c2c(-c3ccc(F)cc3)ncn2C2CCCC2)o1` [Compound 10, 5-(1-cyclopentyl-4-(4-fluorophenyl)-1H-imidazol-5-yl)-N-(2-(trifluoromethyl)phenyl)furan-2-carboxamide], the results for the pIC50 at TNIK (setting [1]), on TNIK (read-out: TNIK_IC50) and at MAP4K4 (h) were 8.00, more than 8.00 and 7.52, respectively.
As to `COc1ccc(NC(=O)c2ccc(-c3c(-c4ccc(F)cc4)ncn3C3CCCC3)o2)c(OC)c1` [Compound 18, 5-(1-cyclopentyl-4-(4-fluorophenyl)-1H-imidazol-5-yl)-N-(2,4-dimethoxyphenyl)furan-2-carboxamide], the pIC50 on TNIK (setting [1]) was more than 8.00; on TNIK (read-out: TNIK_IC50), 8.63; at MAP4K4 (h), 8.39.
Consider `COc1ccccc1NC(=O)c1ccc(-c2c(-c3ccc(F)cc3)ncn2C2CCCC2)o1` [Compound 50, 5-(1-cyclopentyl-4-(4-fluorophenyl)-1H-imidazol-5-yl)-N-(2-methoxyphenyl)furan-2-carboxamide], for which the pIC50 at TNIK (setting [1]) is more than 8.00; on TNIK (read-out: TNIK_IC50), 8.41; on MAP4K4 (h), 8.35.
With `Cc1ccc(NC(=O)c2ccc(-c3c(-c4ccc(F)cc4)ncn3C3CCCC3)o2)cc1Cl` [Compound 30, N-(3-chloro-4-methylphenyl)-5-(1-cyclopentyl-4-(4-fluorophenyl)-1H-imidazol-5-yl)furan-2-carboxamide], the pIC50 at TNIK (setting [1]) is 7.02; on TNIK (read-out: TNIK_IC50), 7.02; on MAP4K4 (h), 6.05.
`O=C(Nc1ccccc1Cl)c1ccc(-c2c(-c3ccc(F)cc3)ncn2C2CCCC2)o1` [Compound 14, N-(2-chlorophenyl)-5-(1-cyclopentyl-4-(4-fluorophenyl)-1H-imidazol-5-yl)furan-2-carboxamide]: the results for the pIC50 on TNIK (setting [1]), on TNIK (read-out: TNIK_IC50) and at MAP4K4 (h) were more than 8.00, 7.82 and 7.96, respectively.
Consider `O=C(Nc1c(O)cncc1F)c1ccc(-c2c(-c3ccc(F)cc3)ncn2C2COCC2F)o1` (stereo not drawn) [Compound A-56, N-(3-fluoro-5-hydroxypyridin-4-yl)-S-(4-(4-fluorophenyl)-1-(4-fluorotetrahydrofuran-3-yl)-1H-imidazol-5-yl)furan-2-carboxamide], for which the pIC50 on TNIK (read-out: TNIK_IC50) is 5.87; at MAP4K4 (h), 5.51.
With `COc1ccccc1NC(=O)c1ccc(-c2c(-c3ccc(F)cc3)ncn2C2CCCCC2)o1` [Compound 79, 5-(1-cyclohexyl-4-(4-fluorophenyl)-1H-imidazol-5-yl)-N-(2-methoxyphenyl)furan-2-carboxamide], the pIC50 at TNIK (setting [1]) was 7.80; at TNIK (read-out: TNIK_IC50), 7.80; at MAP4K4 (h), 7.65.
As to `Cc1ccc(NC(=O)c2ccc(-c3c(-c4ccc(F)cc4)ncn3C3CCCC3)o2)cc1F` [Compound 40, 5-(1-cyclopentyl-4-(4-fluorophenyl)-1H-imidazol-5-yl)-N-(3-fluoro-4-methylphenyl)furan-2-carboxamide], the pIC50 at TNIK (setting [1]) is 6.99; at TNIK (read-out: TNIK_IC50) it was 6.99; at MAP4K4 (h), 6.61.
With `Cc1ccc(C)c(NC(=O)c2ccc(-c3c(-c4ccc(F)cc4)ncn3C3CCCC3)o2)c1` [Compound 31, 5-(1-cyclopentyl-4-(4-fluorophenyl)-1H-imidazol-5-yl)-N-(2,5-dimethylphenyl)furan-2-carboxamide], the pIC50 was 6.87 on TNIK (setting [1]), 6.87 on TNIK (read-out: TNIK_IC50) and 6.34 at MAP4K4 (h).
In the case of `COc1cnccc1NC(=O)c1ccc(-c2c(-c3ccc(F)cc3)ncn2CC2CCOC2)o1` (stereo not drawn) [Compound A-37, 5-(4-(4-fluorophenyl)-1-((tetrahydrofuran-3-yl)methyl)-1H-imidazol-5-yl)-N-(3-methoxypyridin-4-yl)furan-2-carboxamide], the pIC50 was 7.58 on TNIK (read-out: TNIK_IC50) and 7.30 at MAP4K4 (h).
For the molecule `CCc1ccccc1NC(=O)c1ccc(-c2c(-c3ccc(F)cc3)ncn2C2CCCCC2)o1` [Compound 61, 5-(1-cyclohexyl-4-(4-fluorophenyl)-1H-imidazol-5-yl)-N-(2-ethylphenyl)furan-2-carboxamide], the results for the pIC50 at TNIK (setting [1]), at TNIK (read-out: TNIK_IC50) and on MAP4K4 (h) were 6.79, 6.79 and 6.61, respectively.
As for `O=C(Nc1ccccc1Cl)c1ccc(-c2c(-c3ccc(F)cc3)ncn2C2CCCCC2)o1` [Compound 55, N-(2-chlorophenyl)-5-(1-cyclohexyl-4-(4-fluorophenyl)-1H-imidazol-5-yl)furan-2-carboxamide], the pIC50 on TNIK (setting [1]) was 7.62; on TNIK (read-out: TNIK_IC50), 7.62; at MAP4K4 (h) it was 7.36.
As for `COC(=O)c1ccccc1NC(=O)c1ccc(-c2c(-c3ccc(F)cc3)ncn2C2CCCC2)o1` [Compound 27, methyl 2-(5-(1-cyclopentyl-4-(4-fluorophenyl)-1H-imidazol-5-yl)furan-2-carboxamido)benzoate], the pIC50 on TNIK (setting [1]) is more than 8.00; on TNIK (read-out: TNIK_IC50) it was 8.29; at MAP4K4 (h), 7.94.
In the case of `Cc1ccc(NC(=O)c2ccc(-c3c(-c4ccc(F)cc4)ncn3C3CCCCC3)o2)cc1C` [Compound 69, 5-(1-cyclohexyl-4-(4-fluorophenyl)-1H-imidazol-5-yl)-N-(3,4-dimethylphenyl)furan-2-carboxamide], the pIC50 on TNIK (setting [1]) was 7.05; on TNIK (read-out: TNIK_IC50) it was 7.05; on MAP4K4 (h), 6.54.
Regarding `O=C(Nc1cc[nH]c(=O)c1)c1ccc(-c2c(-c3ccc(F)cc3)ncn2C2COCC2(F)F)o1` (stereo not drawn) [Compound A-42, 5-(1-(4,4-difluorotetrahydrofuran-3-yl)-4-(4-fluorophenyl)-1H-imidazol-5-yl)-N-(2-oxo-1,2-dihydropyridin-4-yl)furan-2-carboxamide], the pIC50 on TNIK (read-out: TNIK_IC50) was 6.91; on MAP4K4 (h), 6.64.
On to `O=C(Nc1ccc(Cl)cc1F)c1ccc(-c2c(-c3ccc(F)cc3)ncn2C2CCCCC2)o1` [Compound 76, N-(4-chloro-2-fluorophenyl)-5-(1-cyclohexyl-4-(4-fluorophenyl)-1H-imidazol-5-yl)furan-2-carboxamide], for which the pIC50 was 7.38 on TNIK (setting [1]), 7.38 on TNIK (read-out: TNIK_IC50) and 7.15 on MAP4K4 (h).
Consider `Cc1ccc(-c2ncn(C3CCCCC3)c2-c2ccc(C(=O)Nc3ccc(F)cc3)o2)cc1` [Compound 8, 5-(1-cyclohexyl-4-(p-tolyl)-1H-imidazol-5-yl)-N-(4-fluorophenyl)furan-2-carboxamide], for which the pIC50 is 5.35 at TNIK (setting [1]), 5.35 on TNIK (read-out: TNIK_IC50) and less than 6.00 at MAP4K4 (h).
With `CSc1cccc(NC(=O)c2ccc(-c3c(-c4ccc(F)cc4)ncn3C3CCCC3)o2)c1` [Compound 36, 5-(1-cyclopentyl-4-(4-fluorophenyl)-1H-imidazol-5-yl)-N-(3-(methylthio)phenyl)furan-2-carboxamide], the pIC50 at TNIK (setting [1]) is 6.96; on TNIK (read-out: TNIK_IC50), 6.96; at MAP4K4 (h) it was 6.49.
In the case of `COc1ccc(C)cc1NC(=O)c1ccc(-c2c(-c3ccc(F)cc3)ncn2C2CCCCC2)o1` [Compound 77, 5-(1-cyclohexyl-4-(4-fluorophenyl)-1H-imidazol-5-yl)-N-(2-methoxy-5-methylphenyl)furan-2-carboxamide], the results for the pIC50 at TNIK (setting [1]), on TNIK (read-out: TNIK_IC50) and on MAP4K4 (h) were 7.57, 7.57 and 7.21, respectively.
`CCc1ccc(NC(=O)c2ccc(-c3c(-c4ccc(F)cc4)ncn3C3CCCC3)o2)cc1` [Compound 23, 5-(1-cyclopentyl-4-(4-fluorophenyl)-1H-imidazol-5-yl)-N-(4-ethylphenyl)furan-2-carboxamide]: the values for the pIC50 on TNIK (setting [1]), at TNIK (read-out: TNIK_IC50) and at MAP4K4 (h) were 7.26, 7.26 and 6.99, respectively.
As for `CC(=O)c1ccc(NC(=O)c2ccc(-c3c(-c4ccc(F)cc4)ncn3C3CCCC3)o2)cc1` [Compound 9, N-(4-acetylphenyl)-5-(1-cyclopentyl-4-(4-fluorophenyl)-1H-imidazol-5-yl)furan-2-carboxamide], the pIC50 was 7.96 at TNIK (setting [1]), 7.96 at TNIK (read-out: TNIK_IC50) and 7.43 on MAP4K4 (h).
Take `Cc1cc(C)c(NC(=O)c2ccc(-c3c(-c4ccc(F)cc4)ncn3C3CCCC3)o2)c(C)c1` [Compound 34, 5-(1-cyclopentyl-4-(4-fluorophenyl)-1H-imidazol-5-yl)-N-mesitylfuran-2-carboxamide]: the pIC50 on TNIK (setting [1]) was 6.50; on TNIK (read-out: TNIK_IC50), 6.50; at MAP4K4 (h) it was 6.62.
Take `O=C(Nc1cccc(F)c1)c1ccc(-c2c(-c3ccc(F)cc3)ncn2C2CCCC2)o1` [Compound 25, 5-(1-cyclopentyl-4-(4-fluorophenyl)-1H-imidazol-5-yl)-N-(3-fluorophenyl)furan-2-carboxamide]: the pIC50 at TNIK (setting [1]) was 7.23; on TNIK (read-out: TNIK_IC50), 7.23; on MAP4K4 (h), 7.08.
For the molecule `Cc1ccc(Cl)cc1NC(=O)c1ccc(-c2c(-c3ccc(F)cc3)ncn2C2CCCC2)o1` [Compound 17, N-(5-chloro-2-methylphenyl)-5-(1-cyclopentyl-4-(4-fluorophenyl)-1H-imidazol-5-yl)furan-2-carboxamide], the pIC50 at TNIK (setting [1]) was 7.34; on TNIK (read-out: TNIK_IC50), 7.34; on MAP4K4 (h) it was 6.98.
